Reference: publication PMC10879502, “Linking ATP and allosteric sites to achieve superadditive binding with bivalent EGFR kinase inhibitors” (Communications Chemistry, 2024)

Assays:
Assay type in all cases: binding
Conditions in all cases: 1 μM
468 kinases = assay: KINOMEscan selectivity score
[1] = biological target: T1, ABL1(F317I)-nonphosphorylated (Homo sapiens, UniProt P00519, F317I); assay: KINOMEscan
T1 construct: purchased Eurofins DiscoverX Corporation

[2] = biological target: T2, ABL1(F317I)-phosphorylated (Homo sapiens, UniProt P00519, F317I); assay: KINOMEscan
T2 construct: purchased Eurofins DiscoverX Corporation

ABL1-nonphosphorylated = biological target: T3, ABL1-nonphosphorylated (Homo sapiens, UniProt P00519); assay: KINOMEscan
T3 construct: purchased Eurofins DiscoverX Corporation

ACVR2B = ACVR2B (Homo sapiens, UniProt Q13705); assay: KINOMEscan
AKT1 = AKT1 (Homo sapiens, UniProt P31749); assay: KINOMEscan
ARK5 = ARK5 (Homo sapiens, UniProt O60285); assay: KINOMEscan
BMPR1A = BMPR1A (Homo sapiens, UniProt P36894); assay: KINOMEscan
BMX = biological target: T4, BMX (Homo sapiens, UniProt P51813); assay: KINOMEscan
T4 construct: purchased Eurofins DiscoverX Corporation (KINOMEscan)

BRSK2 = biological target: T5, BRSK2 (Homo sapiens, UniProt Q8IWQ3); assay: KINOMEscan
T5 construct: purchased Eurofins DiscoverX Corporation (KINOMEscan)

CAMK1D = biological target: T6, CAMK1D (Homo sapiens, UniProt Q8IU85); assay: KINOMEscan
T6 construct: purchased Eurofins DiscoverX Corporation (KINOMEscan)

CAMKK1 = biological target: T7, CAMKK1 (Homo sapiens, UniProt Q8N5S9); assay: KINOMEscan
T7 construct: purchased Eurofins DiscoverX Corporation (KINOMEscan)

CDK2 = CDK2 (Homo sapiens, UniProt P24941); assay: KINOMEscan
CDK4-cyclinD1 = CDK4-cyclinD1 (Homo sapiens, UniProt P11802); assay: KINOMEscan
CHEK2 = CHEK2 (Homo sapiens, UniProt O96017); assay: KINOMEscan
CLK1 = CLK1 (Homo sapiens, UniProt P49759); assay: KINOMEscan
CSF1R = CSF1R (Homo sapiens, UniProt P07333); assay: KINOMEscan
DAPK2 = biological target: T8, DAPK2 (Homo sapiens, UniProt Q9UIK4); assay: KINOMEscan
T8 construct: purchased Eurofins DiscoverX Corporation

DLK = biological target: T9, DLK (Homo sapiens, UniProt Q12852); assay: KINOMEscan
T9 construct: purchased Eurofins DiscoverX Corporation

EGFR(E746-A750del) = EGFR(E746-A750del) (Homo sapiens, UniProt P00533, DEL746-750); assay: KINOMEscan
ERBB2 = ERBB2 (Homo sapiens, UniProt P04626); assay: KINOMEscan
ERK3 = ERK3 (Homo sapiens, UniProt Q16659); assay: KINOMEscan
GRK4 = biological target: T10, GRK4 (Homo sapiens, UniProt P32298); assay: KINOMEscan
T10 construct: purchased Eurofins DiscoverX Corporation

ICK = biological target: T11, ICK (Homo sapiens, UniProt Q9UPZ9); assay: KINOMEscan
T11 construct: purchased Eurofins DiscoverX (KINOMEscan)

INSR = biological target: T12, INSR (Homo sapiens, UniProt P06213); assay: KINOMEscan
T12 construct: purchased Eurofins DiscoverX (KINOMEscan)

JNK1 = biological target: T13, JNK1 (Homo sapiens, UniProt P45983); assay: KINOMEscan
T13 construct: purchased Eurofins DiscoverX (KINOMEscan)

LYN = biological target: T14, LYN (Homo sapiens, UniProt P07948); assay: KINOMEscan
T14 construct: purchased Eurofins DiscoverX Corporation

MEK6 = biological target: T15, MEK6 (Homo sapiens, UniProt P52564); assay: KINOMEscan
T15 construct: purchased Eurofins DiscoverX Corporation

MLK3 = biological target: T16, MLK3 (Homo sapiens, UniProt Q16584); assay: KINOMEscan
T16 construct: purchased Eurofins DiscoverX Corporation

MST1R = biological target: T17, MST1R (Homo sapiens, UniProt Q04912); assay: KINOMEscan
T17 construct: purchased Eurofins DiscoverX Corporation

MST3 = biological target: T18, MST3 (Homo sapiens, UniProt Q9Y6E0); assay: KINOMEscan
T18 construct: purchased Eurofins DiscoverX Corporation

PAK2 = PAK2 (Homo sapiens, UniProt Q13177); assay: KINOMEscan
PIK3CB = PIK3CB (Homo sapiens, UniProt P42338); assay: KINOMEscan
PIK4CB = PIK4CB (Homo sapiens, UniProt Q9UBF8); assay: KINOMEscan
PIKFYVE = PIKFYVE (Homo sapiens, UniProt Q9Y2I7); assay: KINOMEscan
PIP5K2C = PIP5K2C (Homo sapiens, UniProt Q8TBX8); assay: KINOMEscan
PRKG1 = PRKG1 (Homo sapiens, UniProt Q13976); assay: KINOMEscan
[3] = biological target: RPS6KA5(Kin.Dom.2-C-terminal) (Homo sapiens, UniProt O75582); assay: KINOMEscan
[4] = biological target: RSK1(Kin.Dom.2-C-terminal) (Homo sapiens, UniProt Q15418); assay: KINOMEscan
SIK = SIK (Homo sapiens, UniProt P57059); assay: KINOMEscan
SNRK = SNRK (Homo sapiens, UniProt Q9NRH2); assay: KINOMEscan
ULK2 = ULK2 (Homo sapiens, UniProt Q8IYT8); assay: KINOMEscan
YANK1 = YANK1 (Homo sapiens, UniProt Q8WU08); assay: KINOMEscan

T14 sequence (P07948 whole entry): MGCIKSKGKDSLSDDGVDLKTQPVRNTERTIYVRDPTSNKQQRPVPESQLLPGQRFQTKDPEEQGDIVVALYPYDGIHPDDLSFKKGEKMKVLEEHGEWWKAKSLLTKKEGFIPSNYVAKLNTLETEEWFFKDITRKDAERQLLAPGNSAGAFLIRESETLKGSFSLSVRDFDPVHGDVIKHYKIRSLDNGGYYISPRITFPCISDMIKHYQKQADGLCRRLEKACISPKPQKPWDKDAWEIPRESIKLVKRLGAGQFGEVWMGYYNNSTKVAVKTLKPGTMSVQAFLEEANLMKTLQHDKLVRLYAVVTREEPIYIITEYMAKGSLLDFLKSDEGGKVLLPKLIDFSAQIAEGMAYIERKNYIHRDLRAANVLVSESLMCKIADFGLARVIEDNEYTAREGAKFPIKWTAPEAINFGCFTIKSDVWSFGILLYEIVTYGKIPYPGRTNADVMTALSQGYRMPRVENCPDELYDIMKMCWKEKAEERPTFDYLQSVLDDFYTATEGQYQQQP
Sequence of CLK1 (P49759 whole entry): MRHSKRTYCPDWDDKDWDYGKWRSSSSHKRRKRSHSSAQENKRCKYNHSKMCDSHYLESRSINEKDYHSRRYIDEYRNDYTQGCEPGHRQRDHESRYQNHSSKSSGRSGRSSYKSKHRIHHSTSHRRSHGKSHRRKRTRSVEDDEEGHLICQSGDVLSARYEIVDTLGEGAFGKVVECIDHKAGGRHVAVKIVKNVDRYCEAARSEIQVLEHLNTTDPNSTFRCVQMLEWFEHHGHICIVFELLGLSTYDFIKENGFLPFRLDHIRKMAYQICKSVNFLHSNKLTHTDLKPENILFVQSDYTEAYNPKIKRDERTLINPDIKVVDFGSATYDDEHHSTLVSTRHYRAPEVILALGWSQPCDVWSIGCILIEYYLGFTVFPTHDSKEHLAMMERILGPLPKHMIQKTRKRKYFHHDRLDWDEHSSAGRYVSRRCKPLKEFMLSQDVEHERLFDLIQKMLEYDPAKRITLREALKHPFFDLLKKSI
Sequence of ARK5 (O60285 whole entry): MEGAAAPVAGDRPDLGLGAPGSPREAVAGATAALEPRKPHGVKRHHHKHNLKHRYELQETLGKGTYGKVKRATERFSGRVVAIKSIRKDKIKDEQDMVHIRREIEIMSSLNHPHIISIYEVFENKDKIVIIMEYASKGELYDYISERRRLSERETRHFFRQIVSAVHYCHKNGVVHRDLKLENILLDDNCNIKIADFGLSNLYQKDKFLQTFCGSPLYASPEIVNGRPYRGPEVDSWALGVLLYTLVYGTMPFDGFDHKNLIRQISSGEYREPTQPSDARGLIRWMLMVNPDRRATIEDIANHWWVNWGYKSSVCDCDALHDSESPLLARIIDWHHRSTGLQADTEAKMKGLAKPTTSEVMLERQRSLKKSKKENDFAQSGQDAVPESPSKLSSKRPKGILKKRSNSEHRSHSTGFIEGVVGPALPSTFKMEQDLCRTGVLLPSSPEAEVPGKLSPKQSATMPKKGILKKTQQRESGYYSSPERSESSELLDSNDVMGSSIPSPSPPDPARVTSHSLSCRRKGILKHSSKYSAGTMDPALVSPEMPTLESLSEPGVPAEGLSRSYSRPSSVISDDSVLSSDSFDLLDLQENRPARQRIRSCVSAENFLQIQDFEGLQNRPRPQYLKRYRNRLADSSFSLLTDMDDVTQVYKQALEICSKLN
T16 sequence (Q16584 whole entry): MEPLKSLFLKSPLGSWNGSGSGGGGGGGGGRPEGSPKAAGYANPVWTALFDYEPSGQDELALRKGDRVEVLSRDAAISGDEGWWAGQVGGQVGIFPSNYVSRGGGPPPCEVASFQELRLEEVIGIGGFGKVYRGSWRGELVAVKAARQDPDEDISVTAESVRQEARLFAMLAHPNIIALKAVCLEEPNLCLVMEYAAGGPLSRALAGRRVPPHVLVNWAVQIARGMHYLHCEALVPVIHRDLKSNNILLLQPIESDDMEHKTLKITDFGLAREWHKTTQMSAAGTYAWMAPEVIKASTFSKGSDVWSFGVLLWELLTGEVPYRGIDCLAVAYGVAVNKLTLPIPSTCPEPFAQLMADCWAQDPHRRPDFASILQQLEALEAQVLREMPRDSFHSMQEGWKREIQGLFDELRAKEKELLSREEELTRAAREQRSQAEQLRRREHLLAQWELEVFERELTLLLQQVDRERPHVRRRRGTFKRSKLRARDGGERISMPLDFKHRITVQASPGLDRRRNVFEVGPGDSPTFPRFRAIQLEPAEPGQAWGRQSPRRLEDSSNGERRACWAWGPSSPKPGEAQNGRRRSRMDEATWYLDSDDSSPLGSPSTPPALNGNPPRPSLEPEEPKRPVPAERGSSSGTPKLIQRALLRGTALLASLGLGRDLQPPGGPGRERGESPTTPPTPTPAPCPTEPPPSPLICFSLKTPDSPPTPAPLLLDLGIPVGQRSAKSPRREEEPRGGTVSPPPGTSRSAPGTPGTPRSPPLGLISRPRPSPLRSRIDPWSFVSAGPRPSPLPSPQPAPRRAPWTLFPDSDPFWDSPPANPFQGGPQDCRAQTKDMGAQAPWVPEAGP
Sequence of ACVR2B (Q13705 19-512): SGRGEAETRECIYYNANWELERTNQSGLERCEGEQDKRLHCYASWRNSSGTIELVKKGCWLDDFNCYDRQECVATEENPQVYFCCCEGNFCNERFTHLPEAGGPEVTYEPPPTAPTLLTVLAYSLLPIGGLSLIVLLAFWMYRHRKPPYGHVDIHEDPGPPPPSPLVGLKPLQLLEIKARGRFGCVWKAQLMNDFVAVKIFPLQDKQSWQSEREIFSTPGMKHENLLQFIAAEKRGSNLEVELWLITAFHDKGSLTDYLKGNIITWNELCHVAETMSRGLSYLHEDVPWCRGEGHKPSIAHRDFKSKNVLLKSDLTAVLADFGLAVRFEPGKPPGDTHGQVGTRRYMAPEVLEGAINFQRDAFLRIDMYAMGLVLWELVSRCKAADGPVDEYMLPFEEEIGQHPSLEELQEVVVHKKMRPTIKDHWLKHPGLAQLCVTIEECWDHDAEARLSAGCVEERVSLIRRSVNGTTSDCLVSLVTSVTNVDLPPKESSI
Sequence of AKT1 (P31749 whole entry): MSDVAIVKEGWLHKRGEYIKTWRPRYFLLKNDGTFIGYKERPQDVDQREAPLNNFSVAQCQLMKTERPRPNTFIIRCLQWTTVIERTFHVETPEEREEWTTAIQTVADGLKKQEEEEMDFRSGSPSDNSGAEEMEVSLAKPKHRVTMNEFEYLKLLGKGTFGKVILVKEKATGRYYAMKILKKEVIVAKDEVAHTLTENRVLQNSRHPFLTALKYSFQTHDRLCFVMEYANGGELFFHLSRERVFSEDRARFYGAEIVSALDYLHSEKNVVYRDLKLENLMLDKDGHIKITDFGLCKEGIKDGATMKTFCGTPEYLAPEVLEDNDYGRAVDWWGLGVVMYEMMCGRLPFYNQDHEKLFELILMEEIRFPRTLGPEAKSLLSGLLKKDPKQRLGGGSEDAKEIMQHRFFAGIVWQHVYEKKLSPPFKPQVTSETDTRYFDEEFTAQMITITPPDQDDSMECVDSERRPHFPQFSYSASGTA
T18 sequence (Q9Y6E0 whole entry): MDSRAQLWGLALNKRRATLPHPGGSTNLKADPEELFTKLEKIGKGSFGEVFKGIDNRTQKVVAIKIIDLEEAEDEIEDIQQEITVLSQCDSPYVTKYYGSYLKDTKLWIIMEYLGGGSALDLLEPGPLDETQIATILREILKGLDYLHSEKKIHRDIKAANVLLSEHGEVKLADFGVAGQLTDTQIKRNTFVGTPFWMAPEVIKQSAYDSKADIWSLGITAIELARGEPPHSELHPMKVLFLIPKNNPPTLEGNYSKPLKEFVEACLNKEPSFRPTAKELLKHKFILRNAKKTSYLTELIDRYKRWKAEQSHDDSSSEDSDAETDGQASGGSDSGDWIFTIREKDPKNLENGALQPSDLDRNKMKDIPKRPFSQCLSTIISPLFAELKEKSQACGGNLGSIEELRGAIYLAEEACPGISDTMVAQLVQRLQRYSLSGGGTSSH
Sequence of PIK3CB (P42338 whole entry): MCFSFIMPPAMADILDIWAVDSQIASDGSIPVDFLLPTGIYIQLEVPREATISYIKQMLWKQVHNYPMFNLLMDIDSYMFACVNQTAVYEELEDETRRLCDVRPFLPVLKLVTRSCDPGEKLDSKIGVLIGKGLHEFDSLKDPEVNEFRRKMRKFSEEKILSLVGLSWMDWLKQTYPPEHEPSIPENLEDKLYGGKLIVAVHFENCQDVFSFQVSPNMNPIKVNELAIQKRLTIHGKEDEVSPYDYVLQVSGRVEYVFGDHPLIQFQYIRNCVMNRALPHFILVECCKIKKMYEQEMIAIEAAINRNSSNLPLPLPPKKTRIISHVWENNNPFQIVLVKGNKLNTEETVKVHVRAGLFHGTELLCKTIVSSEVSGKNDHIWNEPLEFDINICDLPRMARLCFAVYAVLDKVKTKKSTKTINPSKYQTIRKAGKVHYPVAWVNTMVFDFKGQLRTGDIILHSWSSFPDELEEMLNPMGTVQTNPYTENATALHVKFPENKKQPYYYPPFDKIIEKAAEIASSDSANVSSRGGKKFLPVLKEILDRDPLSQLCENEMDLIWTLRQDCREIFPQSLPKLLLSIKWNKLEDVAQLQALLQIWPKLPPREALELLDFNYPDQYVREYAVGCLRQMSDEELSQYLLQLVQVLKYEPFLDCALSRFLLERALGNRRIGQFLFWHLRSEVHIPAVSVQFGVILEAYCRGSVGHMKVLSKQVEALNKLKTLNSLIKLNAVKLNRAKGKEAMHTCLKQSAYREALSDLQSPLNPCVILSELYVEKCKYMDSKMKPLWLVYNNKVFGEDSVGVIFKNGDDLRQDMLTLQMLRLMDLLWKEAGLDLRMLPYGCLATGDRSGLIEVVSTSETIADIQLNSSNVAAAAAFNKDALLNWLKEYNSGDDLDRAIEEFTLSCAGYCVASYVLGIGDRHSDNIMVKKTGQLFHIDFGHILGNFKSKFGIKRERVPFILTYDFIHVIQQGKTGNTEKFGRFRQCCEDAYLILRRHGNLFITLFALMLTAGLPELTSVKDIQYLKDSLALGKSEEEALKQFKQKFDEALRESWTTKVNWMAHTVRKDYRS

C=CC(=O)Nc1ccc(OC)c(Nc2cc(-c3[nH]c(CC)nc3-c3cccc(NC(=O)c4cccc5c4NC(=O)c4ccccc4N5)c3)ccn2)c1 [Compound 4]
selectivity score S(35) (468 kinases): 0.084
POC [1]: 40% of control
POC [2]: 84% of control
POC (ABL1-nonphosphorylated): 100% of control
POC (ACVR2B): 72% of control
POC (AKT1): 89% of control
POC (ARK5): 100% of control
POC (BMPR1A): 85% of control
POC (BMX): 66% of control
POC (BRSK2): 93% of control
POC (CAMK1D): 100% of control
POC (CAMKK1): 85% of control
POC (CDK2): 95% of control
POC (CDK4-cyclinD1): 94% of control
POC (CHEK2): 87% of control
POC (CLK1): 100% of control
POC (CSF1R): 100% of control
POC (DAPK2): 100% of control
POC (DLK): 100% of control
POC (EGFR(E746-A750del)): 13% of control
POC (ERBB2): 18% of control
POC (ERK3): 100% of control
POC (GRK4): 100% of control
POC (ICK): 100% of control
POC (INSR): 97% of control
POC (JNK1): 85% of control
POC (LYN): 22% of control
POC (MEK6): 73% of control
POC (MLK3): 97% of control
POC (MST1R): 85% of control
POC (MST3): 73% of control
POC (PAK2): 100% of control
POC (PIK3CB): 90% of control
POC (PIK4CB): 93% of control
POC (PIKFYVE): 94% of control
POC (PIP5K2C): 66% of control
POC (PRKG1): 100% of control
POC [3]: 100% of control
POC [4]: 75% of control
POC (SIK): 100% of control
POC (SNRK): 82% of control
POC (ULK2): 80% of control
POC (YANK1): 84% of control
